Test results published in patent EP1337551B1, “SUBSTANCE P ANALOGS FOR THE TREATMENT OF CANCER” (DABUR PHARMA LTD., priority 2000, dated 2002).
Residues, ends and D or L forms follow the SMILES beside them.

How the values were obtained:
[1] = test system: L132 (lung); assay: In vitro cytotoxic activity, MTT assay, 72 hours; assay type: cell-based, human
Description: (§1) The cytotoxic activity of synthesized peptides was tested on six human tumor cell lines namely MCF7 (breast), U373 (glioblastoma), PTC, (colon), L132 (lung), Su.86.86 (pancreas), and KB (oral). The tumor cells were collected at exponential growth phase and resuspended in medium (1.5 x 10^6 cells/ml in RPMI 1640 containing 10% FBS). 150µL of medium was added to the wells of a 96-well tissue culture plate (Nunc, Denmark) followed by 30µl of cell suspension. The plate was left in an incubator (37°C, 5% CO2) overnight. 20µl of the peptide (100 pM to 10 µM concentration) was added to marked wells of the 96-well plate. Each concentration was plated in triplicate. 20µl of medium alone was added to control wells while wells without cells served as blanks. A total volume of 200µL was ensured in each well and plate was left in incubator (37°C, 5% CO2). After 72 hours of incubation an MTT assay was performed and percentage cytotoxicity was calculated with respect to control cells.

[2] = test system: MCF7 (breast); assay: In vitro cytotoxic activity, MTT assay, 72 hours; assay type: cell-based, human
Description: as §1

[3] = test system: PTC, (colon); assay: In vitro cytotoxic activity, MTT assay, 72 hours; assay type: cell-based, human
Description: as §1

[4] = test system: Su.86.86 (pancreas); assay: In vitro cytotoxic activity, MTT assay, 72 hours; assay type: cell-based, human
Description: as §1

[5] = test system: U373 (glioblastoma); assay: In vitro cytotoxic activity, MTT assay, 72 hours; assay type: cell-based, human
Description: as §1

[6] = test system: ECV304 (Endothelial); assay: In vitro cytotoxic activity of lipo conjugates, MTT assay, 48 hours; assay type: cell-based
Description: (§2) The cytotoxic effect of lipo-conjugates of substance P analogs SEQ ID NO: 6, SEQ ID NO: 7 and SEQ ID NO: 8, was studied by MTT assay which is based on the principle of uptake of MTT [3-[4,5-dimethylthiazol-2-yl]-2,5-diphenyl tetrazolium bromide], a tetrazolium salt by the metabolically active cells where it is metabolized by active mitochondria in to a blue colored formazan product which can be read spectrophotometrically. Briefly, tumor cells - KB (Oral squamous), U87MG (Blioblastoma), HBL100 (Breast), HeP2 (Larngeal), ECV304 (Endothelial), PA-1 (Ovary) and L132 (Lunng) were incubated with the peptide analogs for 48 hours at 37°C in a 96-well culture plate, followed by the addition of 100 µg MTT and further incubation of 1 hour. The formazan crystals formed inside the cells were dissolved with a detergent comprising of 10% Sodium dodecyl sulfate and 0.01 N HCl and optical density read on a multiscan ELISA reader. The optical density was directly proportional to the number of proliferating and metabolically active cells. SEQ ID NO: 6

[7] = test system: HBL100 (Breast); assay: as above; assay type: cell-based
Description: as §2

[8] = test system: HeP2 (Larngeal); assay: as above; assay type: cell-based
Description: as §2

[9] = test system: KB (Oral squamous); assay: as above; assay type: cell-based
Description: as §2

[10] = test system: L132 (Lunng); assay: as above; assay type: cell-based
Description: as §2

[11] = test system: PA-1 (Ovary); assay: as above; assay type: cell-based
Description: as §2

[12] = test system: U87MG (Blioblastoma); assay: as above; assay type: cell-based
Description: as §2

In the case of `CC(C)C[C@H](NC(=O)[C@@H](Cc1c[nH]c2ccccc12)NC(=O)[C@H](Cc1ccccc1)NC(=O)[C@@H](Cc1c[nH]c2ccccc12)NC(=O)[C@H](CCC(N)=O)NC(=O)[C@@H](Cc1ccccc1)NC(=O)[C@@H]1CCCN1C(=O)[C@H](CCCCN)NC(=O)[C@@H]1CCCN1C(=O)[C@H](N)CCCNC(=N)N)C(=O)NC1(C(N)=O)CCCC1` [SEQ ID NO: 5, D-Arg-Pro-Lys-Pro-D-Phe-Gln-D-Trp-Phe-D-Trp-Leu-Ac5c-NH2] (HELM PEPTIDE1{[dR].P.K.P.[dF].Q.[dW].F.[dW].L.[O=C(C1(N[*:1])CCCC1)[*:2]].[am]}$$$$V2.0), the “Percentage cytotoxicity at different concentrations” value ([1]; 100pM) is reported as 18±3.4%, the “Percentage cytotoxicity at different concentrations” value ([1]; 1nM) is reported as 15 ± 5.8% and the “Percentage cytotoxicity at different concentrations” value ([1]; 10nM) is reported as 19 ± 3.3%. For the same molecule, the “Percentage cytotoxicity at different concentrations” value ([1]; 100nM) was 21 ± 1.2%, the “Percentage cytotoxicity at different concentrations” value ([1]; 1µM) was 20 ± 2.3% and the “Percentage cytotoxicity at different concentrations” value ([1]; 10µM) was 23 ± 2.3%. For the same molecule, the “Percentage cytotoxicity at different concentrations” value ([2]; MCF-7, 100pM) was “Nil”, the “Percentage cytotoxicity at different concentrations” value ([2]; MCF-7, 1nM) was 2.4 ± 1.2% and the “Percentage cytotoxicity at different concentrations” value ([2]; MCF-7, 10nM) was 7.5 ± 1.5%. The “Percentage cytotoxicity at different concentrations” value ([2]; MCF-7, 100nM) was 8.6 ± 1.6%, the “Percentage cytotoxicity at different concentrations” value ([2]; MCF-7, 1µM) was 12.4 ± 2.6% and the “Percentage cytotoxicity at different concentrations” value ([2]; MCF-7, 10µM) was 18.4 ± 6.4%. For the same molecule, the “Percentage cytotoxicity at different concentrations” value ([3]; 100pM) was “Nil”, the “Percentage cytotoxicity at different concentrations” value ([3]; 1nM) was 3.1 ± 0.5% and the “Percentage cytotoxicity at different concentrations” value ([3]; 10nM) was 3.1 ± 1.9%. The “Percentage cytotoxicity at different concentrations” value ([3]; 100nM) was 6.7 ± 1.3%, the “Percentage cytotoxicity at different concentrations” value ([3]; 1µM) was 25.5 ± 4.8% and the “Percentage cytotoxicity at different concentrations” value ([3]; 10µM) was 35.5 ± 4.8%. The “Percentage cytotoxicity at different concentrations” value ([4]; Su8686, 100pM) was “Nil”, the “Percentage cytotoxicity at different concentrations” value ([4]; Su8686, 1nM) was 3 ± 0.3% and the “Percentage cytotoxicity at different concentrations” value ([4]; Su8686, 10nM) was 12 ± 2.8%. The “Percentage cytotoxicity at different concentrations” value ([4]; Su8686, 100nM) was 9 ± 3.8%, the “Percentage cytotoxicity at different concentrations” value ([4]; Su8686, 1µM) was 22 ± 3.3% and the “Percentage cytotoxicity at different concentrations” value ([4]; Su8686, 10µM) was 25 ± 4.3%. For the same molecule, the “Percentage cytotoxicity at different concentrations” value ([5]; 100pM) was 3.7± 0.5%, the “Percentage cytotoxicity at different concentrations” value ([5]; 1nM) was 3.1 ± 0.5% and the “Percentage cytotoxicity at different concentrations” value ([5]; 10nM) was 5.0 ± 0.7%. The “Percentage cytotoxicity at different concentrations” value ([5]; 100nM) was 4.5 ± 0.5%, the “Percentage cytotoxicity at different concentrations” value ([5]; 1µM) was 17.06 ± 1.9% and the “Percentage cytotoxicity at different concentrations” value ([5]; 10µM) was 37.2 ± 5.3%.

With `CC(=O)N[C@H](CCCNC(=N)N)C(=O)N1CCC[C@H]1C(=O)N[C@@H](CCCCN)C(=O)N1CCC[C@H]1C(=O)N[C@H](Cc1ccccc1)C(=O)N[C@@H](CCC(N)=O)C(=O)N[C@H](Cc1c[nH]c2ccccc12)C(=O)N[C@@H](Cc1ccccc1)C(=O)N[C@H](Cc1c[nH]c2ccccc12)C(=O)N[C@@H](CC(C)C)C(=O)NC1(C(N)=O)CCCC1` [SEQ ID NO: 6, Acetyl-D-Arg-Pro-Lys-Pro-D-Phe-Gln-D-Trp-Phe-D-Trp-Leu-Ac5c-NH2] (HELM PEPTIDE1{[ac].[dR].P.K.P.[dF].Q.[dW].F.[dW].L.[O=C(C1(N[*:1])CCCC1)[*:2]].[am]}$$$$V2.0) the “Percentage cytotoxicity at different concentrations” value ([6]; 1nM) was 9.0 ± 3.7%, the “Percentage cytotoxicity at different concentrations” value ([6]; 10nM) was 13.8 ± 3.3% and the “Percentage cytotoxicity at different concentrations” value ([6]; 100nM) was 15.9 ± 2.3%. The “Percentage cytotoxicity at different concentrations” value ([6]; 1µM) was 12.9 ± 2.2%, the “Percentage cytotoxicity at different concentrations” value ([7]; 1nM) was 28.5 ± 4.5% and the “Percentage cytotoxicity at different concentrations” value ([7]; 10nM) was 28.4 ± 1.8%. For the same molecule, the “Percentage cytotoxicity at different concentrations” value ([7]; 100nM) was 31.8 ± 1.5%, the “Percentage cytotoxicity at different concentrations” value ([8]; 1nM) was 10.0 ± 3.2% and the “Percentage cytotoxicity at different concentrations” value ([8]; 10nM) was 14.8 ± 4.4%. For the same molecule, the “Percentage cytotoxicity at different concentrations” value ([8]; 100nM) was 24.9 ± 1.5%, the “Percentage cytotoxicity at different concentrations” value ([8]; 1µM) was 13.8 ± 2.4% and the “Percentage cytotoxicity at different concentrations” value ([9]; 1nM) was 28.0 ± 2.3%. For the same molecule, the “Percentage cytotoxicity at different concentrations” value ([9]; 10nM) was 29.0 ± 1.3%, the “Percentage cytotoxicity at different concentrations” value ([9]; 100nM) was 18.0 ± 2.6% and the “Percentage cytotoxicity at different concentrations” value ([9]; 1µM) was 2.0 ± 1.3%. For the same molecule, the “Percentage cytotoxicity at different concentrations” value ([10]; 1nM) was 14.9 ± 2.9%, the “Percentage cytotoxicity at different concentrations” value ([10]; 10nM) was 24.7 ± 3.2% and the “Percentage cytotoxicity at different concentrations” value ([10]; 100nM) was 19.5 ± 4.6%. The “Percentage cytotoxicity at different concentrations” value ([10]; 1µM) was 19.7 ± 2.5%, the “Percentage cytotoxicity at different concentrations” value ([11]; 1nM) was 8.0 ± 24% and the “Percentage cytotoxicity at different concentrations” value ([11]; 10nM) was 22.0 ± 3.4%. For the same molecule, the “Percentage cytotoxicity at different concentrations” value ([11]; 100nM) was 25.4 ± 2.6%, the “Percentage cytotoxicity at different concentrations” value ([11]; 1µM) was 13.9 ± 3.3% and the “Percentage cytotoxicity at different concentrations” value ([12]; 1nM) was 26.9 ± 3.5%. For the same molecule, the “Percentage cytotoxicity at different concentrations” value ([12]; 10nM) was 32.9 ± 2.4%, the “Percentage cytotoxicity at different concentrations” value ([12]; 100nM) was 34.7 ± 1.9% and the “Percentage cytotoxicity at different concentrations” value ([12]; 1µM) was 31.8 ± 3.2%.

`CCCCCCCC(=O)N[C@H](CCCNC(=N)N)C(=O)N1CCC[C@H]1C(=O)N[C@@H](CCCCN)C(=O)N1CCC[C@H]1C(=O)N[C@H](Cc1ccccc1)C(=O)N[C@@H](CCC(N)=O)C(=O)N[C@H](Cc1c[nH]c2ccccc12)C(=O)N[C@@H](Cc1ccccc1)C(=O)N[C@H](Cc1c[nH]c2ccccc12)C(=O)N[C@@H](CC(C)C)C(=O)NC1(C(N)=O)CCCC1` [SEQ ID NO: 8, Octanoyl-D-Arg-Pro-Lys-Pro-D-Phe-Gln-D-Trp-Phe-D-Trp-Leu-Ac5c-NH2] (HELM PEPTIDE1{[CCCCCCCC(=O)[*:2]].[dR].P.K.P.[dF].Q.[dW].F.[dW].L.[O=C(C1(N[*:1])CCCC1)[*:2]].[am]}$$$$V2.0) was tested, and the “Percentage cytotoxicity at different concentrations” value ([6]; 1nM) was 16.9 ± 3.5%, the “Percentage cytotoxicity at different concentrations” value ([6]; 10nM) was 31.9 ± 3.3% and the “Percentage cytotoxicity at different concentrations” value ([6]; 100nM) was 24.6 ± 2.3%. The “Percentage cytotoxicity at different concentrations” value ([6]; 1µM) was 17.9 ± 2.4%, the “Percentage cytotoxicity at different concentrations” value ([7]; 1nM) was 9.0 ± 4.5% and the “Percentage cytotoxicity at different concentrations” value ([7]; 10nM) was 28.6 ± 3.8%. For the same molecule, the “Percentage cytotoxicity at different concentrations” value ([7]; 100nM) was 30.6 ± 1.5%, the “Percentage cytotoxicity at different concentrations” value ([7]; 1µM) was 25.8 ± 1.4% and the “Percentage cytotoxicity at different concentrations” value ([8]; 1nM) was 12.5 ± 3.2%. The “Percentage cytotoxicity at different concentrations” value ([8]; 10nM) was 15.5 ± 4.4%, the “Percentage cytotoxicity at different concentrations” value ([8]; 100nM) was 24.9 ± 2.5% and the “Percentage cytotoxicity at different concentrations” value ([8]; 1µM) was 12.9 ± 3.4%. For the same molecule, the “Percentage cytotoxicity at different concentrations” value ([9]; 1nM) was 28.0 ± 3.5%, the “Percentage cytotoxicity at different concentrations” value ([9]; 10nM) was 29.0% and the “Percentage cytotoxicity at different concentrations” value ([9]; 100nM) was 23.0 ± 3.2%. For the same molecule, the “Percentage cytotoxicity at different concentrations” value ([9]; 1µM) was 19.0 ± 4.3%, the “Percentage cytotoxicity at different concentrations” value ([10]; 1nM) was 11.9 ± 4.9% and the “Percentage cytotoxicity at different concentrations” value ([10]; 10nM) was 27.5 ± 3.5%. The “Percentage cytotoxicity at different concentrations” value ([10]; 100nM) was 16.9 ± 3.6%, the “Percentage cytotoxicity at different concentrations” value ([10]; 1µM) was 18.6 ± 2.4% and the “Percentage cytotoxicity at different concentrations” value ([11]; 1nM) was 22.1 ± 3.4%. For the same molecule, the “Percentage cytotoxicity at different concentrations” value ([11]; 10nM) was 26.9 ± 3.4%, the “Percentage cytotoxicity at different concentrations” value ([11]; 100nM) was 39.0 ± 2.6% and the “Percentage cytotoxicity at different concentrations” value ([11]; 1µM) was 34.4 ± 3.4%. For the same molecule, the “Percentage cytotoxicity at different concentrations” value ([12]; 1nM) was 23.9 ± 3.3%, the “Percentage cytotoxicity at different concentrations” value ([12]; 10nM) was 33.9 ± 2.2% and the “Percentage cytotoxicity at different concentrations” value ([12]; 100nM) was 28.9 ± 1.4%. For the same molecule, the “Percentage cytotoxicity at different concentrations” value ([12]; 1µM) was 21.8 ± 3.4%.
